Measured values as given in US9833497B2, “Human originated EGF domain proteins and use of the same” (CHENGDU SOURCEBIO LIMITED-LIABILITY COMPANY, priority 2013, dated 2017).

Experiments:
Assay type in all cases: cell-based
[1] = tested on: E. coli DH5α; experiment: Antibacterial activity: MIC and growth curve against E. coli DH5α in 96-well plate; settings: minimal inhibitory concentration against E. coli DH5α; 96-well plate, 5×10^5 CFU/mL, 37° C., judged after 8 h
How it was run: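 MIC taken as lowest protein level with no bacterial growth, tracked by A600 every 30 min during 37 °C, 175 rpm culture. Two-fold protein series 50-12.5 μg/mL final, triplicate wells, against 5×10^5 CFU/mL of LB-washed mid-log cells.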

[2] = tested on: E. coli BL21; experiment: MIC against Gram-negative bacteria: E. coli BL21; settings: for MIC against E. coli BL21 / MIC (μg/mL) E. coli BL21: 5×10^5 CFU/mL
How it was run: (§1)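 Inocula prepared by growing LB cultures at 37° C to 0.5 McFarland, centrifuging at 4000×g, and resuspending in fresh medium. Final density 5×10^5 CFU/mL per well with two-fold dilutions of purified EGF domain protein; shaking incubation at 37° C.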

[3] = tested on: Pseudomonas aeruginosa; experiment: MIC against Gram-negative bacteria: Pseudomonas aeruginosa; settings: for MIC against P. aeruginosa / MIC (μg/mL) P. aeruginosa: 5×10^5 CFU/mL
How it was run: as §1

[4] = tested on: Klebsiella pneumonia; experiment: MIC against Gram-negative bacteria: Klebsiella pneumonia; settings: for MIC against K. pneumonia / MIC (μg/mL) K. pneumonia: 5×10^5 CFU/mL
How it was run: as §1

[5] = tested on: Enterobacter cloacae; experiment: MIC against Gram-negative bacteria: Enterobacter cloacae; settings: for MIC against E. cloacae / MIC (μg/mL) E. cloacae: 5×10^5 CFU/mL
How it was run: as §1

[6] = tested on: Aeromonas hydrophila; experiment: MIC against Gram-negative bacteria: Aeromonas hydrophila; settings: for MIC against A. hydrophila / MIC (μg/mL) A. hydrophila: 5×10^5 CFU/mL
How it was run: as §1

[7] = tested on: Citrobacter diversus; experiment: MIC against Gram-negative bacteria: Citrobacter diversus; settings: for MIC against C. diversus / MIC (μg/mL) C. diversus: 5×10^5 CFU/mL
How it was run: as §1

[8] = tested on: Moraxella catarrhalis; experiment: MIC against Gram-negative bacteria: Moraxella catarrhalis; settings: for MIC against M. catarrhalis / MIC (μg/mL) M. catarrhalis: 5×10^5 CFU/mL
How it was run: as §1

[9] = tested on: Proteus mirabilis; experiment: MIC against Gram-negative bacteria: Proteus mirabilis; settings: for MIC against P. mirabilis / MIC (μg/mL) P. mirabilis: 5×10^5 CFU/mL
How it was run: as §1

[10] = tested on: Proteus vulgaris; experiment: MIC against Gram-negative bacteria: Proteus vulgaris; settings: for MIC against P. vulgaris / MIC (μg/mL) P. vulgaris: 5×10^5 CFU/mL
How it was run: as §1

[11] = tested on: Serratia marcescens; experiment: MIC against Gram-negative bacteria: Serratia marcescens; settings: for MIC against S. marcescens / MIC (μg/mL) S. marcescens: 5×10^5 CFU/mL
How it was run: as §1

[12] = E. coli BL21, 96-well plate, 37° C., 10 h
[13] = Pseudomonas aeruginosa, 96-well plate, 37° C., 10 h
[14] = Klebsiella pneumonia, 96-well plate, 37° C., 10 h
[15] = Enterobacter cloacae, 96-well plate, 37° C., 10 h
[16] = Aeromonas hydrophila, 96-well plate, 37° C., 10 h
[17] = Citrobacter diversus, 96-well plate, 37° C., 10 h
[18] = Moraxella catarrhalis, 96-well plate, 37° C., 10 h
[19] = Proteus mirabilis, 96-well plate, 37° C., 10 h
[20] = Proteus vulgaris, 96-well plate, 37° C., 10 h
[21] = Serratia marcescens, 96-well plate, 37° C., 10 h
[22] = E. coli BL21, 10 h cultivation at 37° C.
[23] = P. aeruginosa, 10 h cultivation at 37° C.
[24] = K. pneumonia, 10 h cultivation at 37° C.
[25] = E. cloacae, 10 h cultivation at 37° C.
[26] = A. hydrophila, 10 h cultivation at 37° C.
[27] = C. diversus, 10 h cultivation at 37° C.
[28] = M. catarrhalis, 10 h cultivation at 37° C.
[29] = P. mirabilis, 10 h cultivation at 37° C.
[30] = P. vulgaris, 10 h cultivation at 37° C.
[31] = S. marcescens, 10 h cultivation at 37° C.

## PRT1226 (YTASCQDMSCSKQGECLETIGNYTCSCYPGFYGPECE; listed as Homo sapiens)
[1]
  MIC: 25 µg/mL
[2]; [12]
  MIC against E. coli BL21: 50 µg/mL
[3]; [13]
  MIC against P. aeruginosa: 25 µg/mL
[4]; [14]
  MIC against K. pneumonia: 12.5 µg/mL
[5]; [15]
  MIC against E. cloacae: 25 µg/mL
[6]; [16]
  MIC against A. hydrophila: 25 µg/mL
[7]; [17]
  MIC against C. diversus: 50 µg/mL
[8]; [18]
  MIC against M. catarrhalis: 12.5 µg/mL
[9]; [19]
  MIC against P. mirabilis: 50 µg/mL
[10]; [20]
  MIC against P. vulgaris: 12.5 µg/mL
[11]; [21]
  MIC against S. marcescens: 25 µg/mL

## PRT503 (CACPLTIASNNFSPTCHLNDGDEVVCDWCAPGYSGAWCERCADGYYGNPTVPGESCVP; listed as Homo sapiens)
[1]
  MIC: 12.5 µg/mL
[2]; 96-well plate, 37° C., 10 h
  MIC against E. coli BL21: 25 µg/mL
[3]; 96-well plate, 37° C., 10 h
  MIC against P. aeruginosa: 50 µg/mL
[4]; 96-well plate, 37° C., 10 h
  MIC against K. pneumonia: 25 µg/mL
[5]; 96-well plate, 37° C., 10 h
  MIC against E. cloacae: 12.5 µg/mL
[6]; 96-well plate, 37° C., 10 h
  MIC against A. hydrophila: 25 µg/mL
[7]; 96-well plate, 37° C., 10 h
  MIC against C. diversus: 50 µg/mL
[8]; 96-well plate, 37° C., 10 h
  MIC against M. catarrhalis: 12.5 µg/mL
[9]; 96-well plate, 37° C., 10 h
  MIC against P. mirabilis: 50 µg/mL
[10]; 96-well plate, 37° C., 10 h
  MIC against P. vulgaris: 12.5 µg/mL
[11]; 96-well plate, 37° C., 10 h
  MIC against S. marcescens: 50 µg/mL

## PRT1388 (RDSCPVLCGGNGEYEKGHCVCRHGWKGPECDV; listed as Homo sapiens)
[1]
  MIC: 100 µg/mL
[2]; [22]
  MIC against E. coli BL21: 12.5 µg/mL
[3]; Pseudomonas aeruginosa, 10 h cultivation at 37° C.
  MIC against P. aeruginosa: 12.5 µg/mL
[4]; Klebsiella pneumonia, 10 h cultivation at 37° C.
  MIC against K. pneumonia: 12.5 µg/mL
[5]; Enterobacter cloacae, 10 h cultivation at 37° C.
  MIC against E. cloacae: 12.5 µg/mL
[6]; Aeromonas hydrophila, 10 h cultivation at 37° C.
  MIC against A. hydrophila: 25 µg/mL
[7]; Citrobacter diversus, 10 h cultivation at 37° C.
  MIC against C. diversus: 12.5 µg/mL
[8]; Moraxella catarrhalis, 10 h cultivation at 37° C.
  MIC against M. catarrhalis: 25 µg/mL
[9]; Proteus mirabilis, 10 h cultivation at 37° C.
  MIC against P. mirabilis: 12.5 µg/mL
[10]; Proteus vulgaris, 10 h cultivation at 37° C.
  MIC against P. vulgaris: 12.5 µg/mL
[11]; Serratia marcescens, 10 h cultivation at 37° C.
  MIC against S. marcescens: 12.5 µg/mL

## PRT125 (CTGHCAHPRLPCFHGGRCVERYSYYTCDCDLTAFDGPYCN; listed as Homo sapiens)
[1]
  MIC: 100 µg/mL
[2]; [12]
  MIC (μg/mL) E. coli BL21: 12.5 µg/mL
[3]; [13]
  MIC (μg/mL) P. aeruginosa: 12.5 µg/mL
[4]; [14]
  MIC (μg/mL) K. pneumonia: 12.5 µg/mL
[5]; [15]
  MIC (μg/mL) E. cloacae: 12.5 µg/mL
[6]; [16]
  MIC (μg/mL) A. hydrophila: 50 µg/mL
[7]; [17]
  MIC (μg/mL) C. diversus: 25 µg/mL
[8]; [18]
  MIC (μg/mL) M. catarrhalis: 12.5 µg/mL
[9]; [19]
  MIC (μg/mL) P. mirabilis: 25 µg/mL
[10]; [20]
  MIC (μg/mL) P. vulgaris: 50 µg/mL
[11]; [21]
  MIC (μg/mL) S. marcescens: 25 µg/mL

## PRT907 (PSVSCEVAAQRQGVDVARLCQHGGLCVDAGNTHHCRCQAGYTGSYCE; listed as Homo sapiens)
[1]
  MIC: 25 µg/mL
[2]; [22]
  MIC: 12.5 µg/mL
[3]; [23]
  MIC: 12.5 µg/mL
[4]; [24]
  MIC: 25 µg/mL
[5]; [25]
  MIC: 12.5 µg/mL
[6]; [26]
  MIC: 12.5 µg/mL
[7]; [27]
  MIC: 12.5 µg/mL
[8]; [28]
  MIC: 12.5 µg/mL
[9]; [29]
  MIC: 25 µg/mL
[10]; [30]
  MIC: 25 µg/mL
[11]; [31]
  MIC: 12.5 µg/mL

## PRT789 (YGNDCHQRCQCQNGATCDHVTGECRCPPGYTGAFCE; listed as Homo sapiens)
[1]
  MIC: 25 µg/mL
[2]; [22]
  MIC (μg/mL) E. coli BL21: 50 µg/mL
[3]; [23]
  MIC (μg/mL) P. aeruginosa: 25 µg/mL
[4]; [24]
  MIC (μg/mL) K. pneumonia: 12.5 µg/mL
[5]; [25]
  MIC (μg/mL) E. cloacae: 50 µg/mL
[6]; [26]
  MIC (μg/mL) A. hydrophila: 12.5 µg/mL
[7]; [27]
  MIC (μg/mL) C. diversus: 25 µg/mL
[8]; [28]
  MIC (μg/mL) M. catarrhalis: 25 µg/mL
[9]; [29]
  MIC (μg/mL) P. mirabilis: 50 µg/mL
[10]; [30]
  MIC (μg/mL) P. vulgaris: 25 µg/mL
[11]; [31]
  MIC (μg/mL) S. marcescens: 12.5 µg/mL

## PRT505 (CECHVKGSHSAVCHLETGLCDCKPNVTGQQCDQCLHGYYGLDSGHGCRP; listed as Homo sapiens)
[1]
  MIC: 50 µg/mL
[2]; 96-well plate, 37° C., 10 h
  MIC against E. coli BL21: 12.5 µg/mL
[3]; 96-well plate, 37° C., 10 h
  MIC against P. aeruginosa: 50 µg/mL
[4]; 96-well plate, 37° C., 10 h
  MIC against K. pneumonia: 12.5 µg/mL
[5]; 96-well plate, 37° C., 10 h
  MIC against E. cloacae: 50 µg/mL
[6]; 96-well plate, 37° C., 10 h
  MIC against A. hydrophila: 12.5 µg/mL
[7]; 96-well plate, 37° C., 10 h
  MIC against C. diversus: 50 µg/mL
[8]; 96-well plate, 37° C., 10 h
  MIC against M. catarrhalis: 25 µg/mL
[9]; 96-well plate, 37° C., 10 h
  MIC against P. mirabilis: 12.5 µg/mL
[10]; 96-well plate, 37° C., 10 h
  MIC against P. vulgaris: 25 µg/mL
[11]; 96-well plate, 37° C., 10 h
  MIC against S. marcescens: 50 µg/mL
